From patent US20220033784A1 (priority 2020, published 2022) come the findings set out here.

For data set [1], the system named is HH cells (IL-2 CD122/CD132 (β/γ) receptor complex). The data set can be described thus: pSTAT5 ELISA in HH cells. The data set is classed as cell-based. As for the experimental part:
(§1) The ability of the IL-2 variants to activate HH cells and iTregs was measured by monitoring relative changes in phosphorylated STAT5 (pSTAT5) in response to treatment of the cells with the IL-2 variants. pSTAT5 is known to be a downstream consequence of IL-2 signaling. HH T cells (ATCC CRL-2105) are a line of T cells that lack the alpha chain of the IL-2 receptor complex, but that contain the beta and gamma chains of the IL-2 receptor complex. iTreg cells were prepared from Fresh Leuko Paks obtained from […] Technologies (CAT #70500.1, Donor #D001003551).
(§2) For IL-2 activation, the HH cells and iTreg cells were plated at 2*10e6 cells/well in 50 ul serum-free RPMI 1640 media (Gibco), and allowed to rest at 37° C. After resting, cells were treated the IL-2 molecules listed above, and cells were then pelleted by centrifugation.
(§3) Following treatment with the IL-2 molecules, cell induction status was evaluated by the InstantOne ELISA pSTAT5 detection kit (Invitrogen).
In general terms: In an ELISA, binding on a coated surface is turned into a signal by an enzyme label.

In data set [2] the test system is iTreg cells (IL-2 CD25/CD122/CD132 (α/β/γ) receptor complex). The data set can be described thus: pSTAT5 ELISA in iTreg cells. In kind it is cell-based. The conditions noted are these: pSTAT5 level 50% of maximum, InstantOne ELISA; read-out: EC50 iTreg cell. As for the experimental part: as §1, §2, §3
In data set [3] the test system is CD8 T cells. Briefly: pSTAT5 flow cytometry in hPBMCs: CD8 T cells. In kind it is cell-based, human. On the procedure:
(§4) In this experiment, the ability of the IL-2 variants to activate CD8 T cells, NK cells, and Treg cells was measured by monitoring relative changes in pSTAT5 in response to treatment of the cells with the IL-2 variants. The IL-2 variants tested in this experiment were each fused to a human IgG Fc domain as described in Example 15. […]; Blood from healthy volunteers was taken and hPBMCs were isolated using a ficoll-paque (GE Healthcare) gradient, washed with PBS to remove platelets, and cleared of red blood cells using ACK lysis buffer (Gibco). Cells were then plated at 1*10e6 cells/well in 90 uL serum-free RPMI 1640 media (Gibco) and allowed to rest for 2-4 hours at 37° C. After resting, cells were treated the IL-2 molecules listed above (10 uL), at the indicated concentrations for 20 minutes at 37° C., and 25 uL 20% PFA was immediately added with gentle pipetting. Cells were then pelleted by centrifugation and aspirated (400 RCF, 7 minutes).
(§5) Phosflow Perm Buffer III (BD Biosciences) was added (200 uL), and the cells were mixed gently by pipetting up and down once to prevent clumping. Cells were then washed twice with 200 uL FACS buffer followed by pelleting by centrifugation (400 RCF, 7 minutes). Cells were in resuspended in 200 uL FACS buffer and incubated with the antibodies in Table D and Table E per standard procedure then suspended in 200 uL FACS buffer for FACS analysis. Data was analyzed using FlowJo v10 software.

The subject of data set [4] is NK cells. The data set can be described thus: pSTAT5 flow cytometry in hPBMCs: NK cells. In kind it is cell-based, human. As for the experimental part:
as §4, §5

For data set [5], the system named is Treg cells. Briefly: pSTAT5 flow cytometry in hPBMCs: Treg cells. In kind it is cell-based, human. Conditions: pSTAT5 MFI in hPBMCs, 20 minutes at 37° C.; read-out: EC50 Treg cell. As for the experimental part:
as §4, §5
For orientation: Flow cytometry measures light scatter and fluorescence of single cells or particles in a stream.

The subject of data set [6] is CD8 T cells. The data set can be described thus: In vivo expansion of CD8 T cells (spleen immunophenotyping). Details: species or system mice. The conditions noted are these: 0.5, 1, or 2 mg/kg daily for 4 days SC; spleens day 3. On the procedure:
(§6) Mice were randomized into groups to receive one of the molecules listed above or PBS control. The treatment groups were as follows: PBS; Fc-IL2; Fc-IL2v; […]; Immunophenotyping was conducted on day 3 after the first treatment (day 0) by collecting spleens from each group.

Data set [7] concerns NK cells. Briefly: In vivo expansion of NK cells (spleen immunophenotyping). Also noted: species or system mice. The conditions noted are these: 0.5, 1, or 2 mg/kg daily for 4 days SC; spleens day 3. As for the experimental part:
as §6

Data set [8] deals with Treg cells. Briefly: In vivo expansion of Treg cells (spleen immunophenotyping). Details: species or system mice. Conditions: 0.5, 1, or 2 mg/kg daily for 4 days SC; spleens day 3. On the procedure: as §6
Another data set concerns B16F10 cells. The data set can be described thus: Tolerability and tumor growth inhibition in B16F10-bearing mice (Example 21). In kind it is in vivo, mouse (C57/BL6). An excerpt: On day 0 of the experiment, female C57/BL6 mice were subcutaneously implanted in the upper thigh with approximately 500,000 B16F10 cells, which had been freshly thawed from a single, low-passage vial (of 1*10^7 cells) and cultured for the minimum time required to establish sufficient cells for implantation.
On day 5 of the experiment, mice were randomized into groups to receive one of the molecules listed above or control. […] Tumor volumes, body weight, and animal survival were tracked throughout the course of the experiment. Animals were sacrificed once tumors reached approximately 2000 mm^3 or 2 weeks post treatment.

The target in data set [9] is T1, mouse intermediate-affinity IL-2R (IL-2Rβ + IL-2Rγ) on murine splenocytes (CD8+ T cells and NK cells) (mouse) (UniProt P16297).
T1 sequence 1: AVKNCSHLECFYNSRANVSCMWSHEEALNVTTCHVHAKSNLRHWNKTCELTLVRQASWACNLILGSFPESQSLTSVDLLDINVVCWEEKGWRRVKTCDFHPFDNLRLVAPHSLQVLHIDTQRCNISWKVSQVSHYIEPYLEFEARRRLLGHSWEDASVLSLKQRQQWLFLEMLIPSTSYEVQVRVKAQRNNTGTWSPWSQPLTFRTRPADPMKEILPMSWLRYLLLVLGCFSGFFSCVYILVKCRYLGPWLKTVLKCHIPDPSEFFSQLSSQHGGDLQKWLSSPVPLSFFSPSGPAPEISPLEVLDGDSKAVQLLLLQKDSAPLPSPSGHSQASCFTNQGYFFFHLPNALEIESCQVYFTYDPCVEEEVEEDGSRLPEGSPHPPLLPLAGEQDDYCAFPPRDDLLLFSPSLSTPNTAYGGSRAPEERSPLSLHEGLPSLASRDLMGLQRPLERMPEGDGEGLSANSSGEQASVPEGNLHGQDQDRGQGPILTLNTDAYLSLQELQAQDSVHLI
T1 sequence 2: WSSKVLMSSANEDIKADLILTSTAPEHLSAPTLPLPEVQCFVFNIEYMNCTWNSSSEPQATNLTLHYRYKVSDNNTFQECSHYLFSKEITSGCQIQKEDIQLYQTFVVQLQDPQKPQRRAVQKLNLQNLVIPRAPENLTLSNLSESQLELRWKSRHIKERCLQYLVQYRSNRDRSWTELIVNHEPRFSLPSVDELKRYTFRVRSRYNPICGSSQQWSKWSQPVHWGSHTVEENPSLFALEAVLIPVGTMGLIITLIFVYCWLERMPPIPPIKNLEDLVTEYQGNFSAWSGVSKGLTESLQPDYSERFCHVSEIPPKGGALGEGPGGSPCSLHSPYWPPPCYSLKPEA

The term EC50 denotes the concentration giving half of the maximal effect. Consider Fc-IL2-K43N:Y45T, for which the “Selectivity HH/iTreg” value in data set [1] (higher value = greater selectivity for HH cells) is given as 3.86 × 10^−3. The EC50 in data set [1] (pSTAT5 level 50% of maximum, InstantOne ELISA, read-out: EC50 HH T cell) was determined as 166 nM; in [2], 0.64 nM; in the data set on CD8 T cells [3] (pSTAT5 MFI in hPBMCs, 20 minutes at 37° C., read-out: EC50 CD8 T cell) it was 57.6 nM; with NK cells [4] (pSTAT5 MFI in hPBMCs, 20 minutes at 37° C., read-out: EC50 NK cell) it was 6.37 nM; in the data set with Treg cells [5], 24.2 nM. For the same substance, the “Selectivity CD8/Treg” value in the data set on CD8 T cells [3] (larger numbers = greater selectivity for CD8 T cells over Treg cells) is on record as 0.42. Moreover, in the data set with NK cells [4] (larger numbers = greater selectivity for NK cells over Treg cells), the “Selectivity NK/Treg” value is reported as 3.8. The “expansion of CD8 T cells in vivo” value in the data set on CD8 T cells [6] was “promoted the expansion”. For the same substance, the “expansion of NK cells in vivo” value in the data set with NK cells [7] is “promoted the expansion”. Besides, in the data set with Treg cells [8], the “proliferation of Treg cells in vivo” value was “modest increase in Treg proliferation”. Moreover, in the data set on B16F10 cells (1 mg/kg SC on days 5, 6, 7, 8, groups of 15, day 12 post first treatment), the surviving mice is listed as 7/15. The “tolerability in mice compared with Fc-IL2 and Fc-IL2v” value in the data set on B16F10 cells (1 mg/kg SC on days 5-8) is “better tolerated”.
For “human IL-2 glycovariant 2 hIL-2gv2 (K43N, Y45T, L72N, Q74T), secreted by virus-infected HeLa cells (from UniProt P60568 21-153) (ligand)”, in data set [9], the EC50 (read off the curve), pSTAT5 MFI, murine splenocyte NK cells was determined as 20 ng/mL.
For the substance “human IL-2 glycovariant hIL-2gv1 (R38N, L40T, K43N, Y45T), secreted by virus-infected HeLa cells (from UniProt P60568 21-153) (ligand)”, in [9], the EC50 (read off the curve), pSTAT5 MFI, murine splenocyte NK cells stood at 20 ng/mL.
